Measurements reported in US20250271426A1, “REDUCTION OF BITTER TASTE OF ACTIVE PHARMACEUTICAL INGREDIENTS AND RELATED ASSAYS AND SCREENING METHODS” (Firmenich Incorporated, priority 2022, published 2025).

Tests used:
Test in all cases: FLIPR calcium assay, cells with promiscuous G protein transfected with bitter receptor cDNA
Assay type in all cases: cell-based
Settings in all cases: responsive if cellular response of >10% over baseline, Fluo4-AM
[1] = biological target: T1, T2R receptor SEQ ID NO: 3 (S3) (Homo sapiens, UniProt Q9NYW0, T156M)
T1 construct: expressed in transfected cells; host or cells: cells expressing a promiscuous G protein (e.g., G16g44)
T1 sequence (Q9NYW0 1-307 T156M): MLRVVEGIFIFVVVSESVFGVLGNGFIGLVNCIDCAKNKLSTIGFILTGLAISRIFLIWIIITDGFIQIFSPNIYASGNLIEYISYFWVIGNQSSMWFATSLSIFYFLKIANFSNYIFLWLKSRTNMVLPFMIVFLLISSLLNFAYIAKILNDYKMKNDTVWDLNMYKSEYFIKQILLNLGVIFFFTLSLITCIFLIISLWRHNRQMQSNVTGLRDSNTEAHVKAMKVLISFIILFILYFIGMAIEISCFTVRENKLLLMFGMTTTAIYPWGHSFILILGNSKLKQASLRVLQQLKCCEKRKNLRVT
Method in brief: (§1)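 Responsiveness was judged from calcium signals: any receptor giving >10% above baseline upon stimulation was scored active. Single-receptor transfections into cells with promiscuous G protein (e.g., G16g44) preceded 28 hours of incubation and Fluo4-AM loading.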

[2] = biological target: T2, T2R receptor SEQ ID NO: 2 (S2) (Homo sapiens, UniProt Q9NYW2)
T2 construct: expressed in transfected cells; host or cells: cells expressing a promiscuous G protein (e.g., G16g44)
T2 sequence (Q9NYW2 1-309): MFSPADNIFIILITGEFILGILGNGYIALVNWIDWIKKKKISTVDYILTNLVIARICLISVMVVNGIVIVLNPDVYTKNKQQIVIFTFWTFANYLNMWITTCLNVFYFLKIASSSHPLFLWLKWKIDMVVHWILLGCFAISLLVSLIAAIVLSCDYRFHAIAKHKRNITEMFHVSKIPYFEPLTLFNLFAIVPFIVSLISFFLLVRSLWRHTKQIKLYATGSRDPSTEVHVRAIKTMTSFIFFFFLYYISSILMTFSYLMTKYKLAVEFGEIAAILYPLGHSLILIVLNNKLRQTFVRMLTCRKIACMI
Method in brief: as §1

[3] = biological target: T3, T2R receptor SEQ ID NO: 6 (S6) (Homo sapiens, UniProt P59540)
T3 construct: expressed in transfected cells; host or cells: cells expressing a promiscuous G protein (e.g., G16g44)
T3 sequence (P59540 1-309): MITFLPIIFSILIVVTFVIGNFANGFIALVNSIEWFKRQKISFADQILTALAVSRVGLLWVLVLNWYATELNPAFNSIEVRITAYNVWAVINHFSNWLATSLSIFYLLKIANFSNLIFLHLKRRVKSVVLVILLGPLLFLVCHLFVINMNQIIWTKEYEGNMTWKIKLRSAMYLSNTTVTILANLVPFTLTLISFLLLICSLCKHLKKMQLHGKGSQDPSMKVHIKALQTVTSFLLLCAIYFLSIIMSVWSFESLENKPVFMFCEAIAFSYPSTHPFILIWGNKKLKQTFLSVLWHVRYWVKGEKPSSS
Method in brief: as §1

[4] = biological target: T4, T2R receptor SEQ ID NO: 1 (S1) (Homo sapiens, UniProt Q9NYW7)
T4 construct: expressed in transfected cells; host or cells: cells expressing a promiscuous G protein (e.g., G16g44)
T4 sequence (Q9NYW7 1-299): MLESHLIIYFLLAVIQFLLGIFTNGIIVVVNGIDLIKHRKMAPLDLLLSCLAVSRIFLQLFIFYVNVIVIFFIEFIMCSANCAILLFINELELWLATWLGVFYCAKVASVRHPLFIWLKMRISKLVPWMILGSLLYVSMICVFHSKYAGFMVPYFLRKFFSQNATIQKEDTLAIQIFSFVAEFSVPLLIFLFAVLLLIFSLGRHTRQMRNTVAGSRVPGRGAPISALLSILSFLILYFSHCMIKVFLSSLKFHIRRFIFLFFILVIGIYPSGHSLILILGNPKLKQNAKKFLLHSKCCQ
Method in brief: as §1

[5] = biological target: T5, T2R receptor SEQ ID NO: 4 (S4) (Homo sapiens, UniProt Q9NYV8)
T5 construct: expressed in transfected cells; host or cells: cells expressing a promiscuous G protein (e.g., G16g44)
T5 sequence (Q9NYV8 1-317): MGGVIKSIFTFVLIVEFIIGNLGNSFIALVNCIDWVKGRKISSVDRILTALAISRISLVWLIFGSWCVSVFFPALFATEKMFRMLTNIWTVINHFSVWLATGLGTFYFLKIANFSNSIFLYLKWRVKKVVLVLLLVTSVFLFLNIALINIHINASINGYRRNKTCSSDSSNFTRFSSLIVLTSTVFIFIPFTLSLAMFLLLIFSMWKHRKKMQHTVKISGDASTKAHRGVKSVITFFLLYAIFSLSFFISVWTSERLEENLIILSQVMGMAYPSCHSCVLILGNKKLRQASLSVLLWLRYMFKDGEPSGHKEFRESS
Method in brief: as §1

[6] = biological target: T6, T2R receptor SEQ ID NO: 5 (S5) (Homo sapiens, UniProt P59534)
T6 construct: expressed in transfected cells; host or cells: cells expressing a promiscuous G protein (e.g., G16g44)
T6 sequence (P59534 18-338): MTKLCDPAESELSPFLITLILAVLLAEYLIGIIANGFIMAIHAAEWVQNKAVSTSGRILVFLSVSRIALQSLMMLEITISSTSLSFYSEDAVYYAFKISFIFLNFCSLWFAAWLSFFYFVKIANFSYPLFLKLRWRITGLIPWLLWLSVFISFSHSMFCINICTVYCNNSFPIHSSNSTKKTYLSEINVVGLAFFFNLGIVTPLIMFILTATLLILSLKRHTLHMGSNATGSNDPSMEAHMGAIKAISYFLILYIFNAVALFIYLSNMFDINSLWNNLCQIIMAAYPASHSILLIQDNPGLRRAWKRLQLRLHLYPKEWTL
Method in brief: as §1

Structure (SMILES)	S3 positive response of T2R receptor to API [1]	S2 positive response of T2R receptor to API [2]	S6 positive response of T2R receptor to API [3]	S1 positive response of T2R receptor to API [4]	S4 positive response of T2R receptor to API [5]	S5 positive response of T2R receptor to API [6]
C[C@]12C=CC(=O)C=C1CC[C@@H]1[C@@H]2C(=O)C[C@@]2(C)[C@H]1CC[C@]2(O)C(=O)CO [Prednisone]	+ (a “+” to indicate whether a particular T2R receptor showed a positive response to a particular API)	+ (a “+” to indicate whether a particular T2R receptor showed a positive response to a particular API)	+ (a “+” to indicate whether a particular T2R receptor showed a positive response to a particular API)	+ (a “+” to indicate whether a particular T2R receptor showed a positive response to a particular API)	+ (a “+” to indicate whether a particular T2R receptor showed a positive response to a particular API)	
CN1CCN(CC(=O)N2c3ccccc3C(=O)Nc3cccnc32)CC1 [Pirenzepine]	+ (a “+” to indicate whether a particular T2R receptor showed a positive response to a particular API)	+ (a “+” to indicate whether a particular T2R receptor showed a positive response to a particular API)	+ (a “+” to indicate whether a particular T2R receptor showed a positive response to a particular API)			+ (a “+” to indicate whether a particular T2R receptor showed a positive response to a particular API)
CC[C@H]1OC(=O)[C@H](C)[C@@H](O[C@H]2C[C@@](C)(OC)[C@@H](O)[C@H](C)O2)[C@H](C)[C@@H](O[C@@H]2O[C@H](C)C[C@H](N(C)C)[C@H]2O)[C@](C)(O)C[C@@H](C)C(=O)[C@H](C)[C@@H](O)[C@]1(C)O [Erythromycin]	+ (a “+” to indicate whether a particular T2R receptor showed a positive response to a particular API)	+ (a “+” to indicate whether a particular T2R receptor showed a positive response to a particular API)	+ (a “+” to indicate whether a particular T2R receptor showed a positive response to a particular API)			+ (a “+” to indicate whether a particular T2R receptor showed a positive response to a particular API)
C[C@H]1O[C@@H](O[C@H]2[C@@H](O)C[C@H](O[C@H]3[C@@H](O)C[C@H](O[C@H]4CC[C@@]5(C)[C@H](CC[C@@H]6[C@@H]5C[C@@H](O)[C@]5(C)[C@@H](C7=CC(=O)OC7)CC[C@]65O)C4)O[C@@H]3C)O[C@@H]2C)C[C@H](O)[C@@H]1O [Digoxin]	+ (a “+” to indicate whether a particular T2R receptor showed a positive response to a particular API)	+ (a “+” to indicate whether a particular T2R receptor showed a positive response to a particular API)	+ (a “+” to indicate whether a particular T2R receptor showed a positive response to a particular API)		+ (a “+” to indicate whether a particular T2R receptor showed a positive response to a particular API)	
COc1ccc([C@@H]2Sc3ccccc3N(CCN(C)C)C(=O)[C@@H]2OC(C)=O)cc1 [Diltiazem]	+ (a “+” to indicate whether a particular T2R receptor showed a positive response to a particular API)	+ (a “+” to indicate whether a particular T2R receptor showed a positive response to a particular API)	+ (a “+” to indicate whether a particular T2R receptor showed a positive response to a particular API)	+ (a “+” to indicate whether a particular T2R receptor showed a positive response to a particular API)	+ (a “+” to indicate whether a particular T2R receptor showed a positive response to a particular API)	
CCN[C@H]1CN(CCCOC)S(=O)(=O)c2sc(S(N)(=O)=O)cc21 [Brinzolamide]	+ (a “+” to indicate whether a particular T2R receptor showed a positive response to a particular API)	+ (a “+” to indicate whether a particular T2R receptor showed a positive response to a particular API)	+ (a “+” to indicate whether a particular T2R receptor showed a positive response to a particular API)	+ (a “+” to indicate whether a particular T2R receptor showed a positive response to a particular API)		
CCN[C@H]1C[C@H](C)S(=O)(=O)c2sc(S(N)(=O)=O)cc21 [Dorzolamide]	+ (a “+” to indicate whether a particular T2R receptor showed a positive response to a particular API)	+ (a “+” to indicate whether a particular T2R receptor showed a positive response to a particular API)	+ (a “+” to indicate whether a particular T2R receptor showed a positive response to a particular API)	+ (a “+” to indicate whether a particular T2R receptor showed a positive response to a particular API)		
CCCCC(CC)COC(=O)CC(C(=O)OCC(CC)CCCC)S(=O)(=O)O (centres unmarked) [Docusate]		+ (a “+” to indicate whether a particular T2R receptor showed a positive response to a particular API)		+ (a “+” to indicate whether a particular T2R receptor showed a positive response to a particular API)	+ (a “+” to indicate whether a particular T2R receptor showed a positive response to a particular API)	
COc1cc(Cc2cnc(N)nc2N)cc(OC)c1OC [Trimethoprim]	+ (a “+” to indicate whether a particular T2R receptor showed a positive response to a particular API)	+ (a “+” to indicate whether a particular T2R receptor showed a positive response to a particular API)	+ (a “+” to indicate whether a particular T2R receptor showed a positive response to a particular API)			+ (a “+” to indicate whether a particular T2R receptor showed a positive response to a particular API)
CN1[C@@H]2CC[C@H]1C[C@@H](OC(=O)C(CO)c1ccccc1)C2 (some centres unmarked) [Atropine]	+ (a “+” to indicate whether a particular T2R receptor showed a positive response to a particular API)	+ (a “+” to indicate whether a particular T2R receptor showed a positive response to a particular API)	+ (a “+” to indicate whether a particular T2R receptor showed a positive response to a particular API)			+ (a “+” to indicate whether a particular T2R receptor showed a positive response to a particular API)
